Counter-ions that a name gives are not always drawn.
Key:
Type in all cases: in vivo
[1] = test system: LPS-induced NFkB activation; experiment: NFkB-luciferase reporter mice assay (LPS-induced endotoxemia); settings: for inhibition of LPS-induced NFkB activation: 20 nanomoles test compound i.p. 30 minutes prior to LPS 2 mg/kg, 6 hrs, IVIS luciferase imaging
Method: (§1) Compound preparation and delivery. All 65 identified compounds were received in solid form and stored at 4° C. until use. Stock solutions of each compound were made by dissolving the appropriate amount of each compound in dimethyl sulfoxide (DMSO) to yield a concentration of 10 mM. Immediately prior to injection into experimental animals, the compounds were diluted to an experimental concentration of 100 uM in phosphate-buffered saline (PBS). Total concentration of DMSO in the final diluted drug was 1%. Compounds were closely examined to insure that no precipitate formed prior to injection and were stored on ice until injection. All compounds were given via intraperitoneal (i.p.) injection in a total volume of 200 ul using a 1 cc syringe and 27 gauge needle. In all experiments listed below, the compounds were delivered to the experimental mice 30 minutes prior to injection with lipopolysaccharide (LPS) to induce endotoxemia. Control animals not receiving compound received 1% DMSO dissolved in PBS. Following drug injection, the mice were observed closely in their cages for signs of immediate toxicity or adverse reaction to the drug, including but not limited to piloerection, tachypnea, bleeding, abnormal or aggressive behavior, signs of altered mental status, and level of activity.
(§2) Induction of endotoxemia. All mice were housed and cared for at the Rangos Research Center, Children's Hospital of Pittsburgh (Pittsburgh, Pa.). All experiments were approved by the Children's Hospital of Pittsburgh Animal Care Committee and by the Institutional Review Board of the University of Pittsburgh. Swiss Webster (CFW) and NFkB-luciferase reporter mice were obtained from The Jackson Laboratory. Throughout the course of all experiments, mice were housed 4 per cage with access to food, water, and standard bedding. Endotoxemia was induced in all experiments by i.p. injection of LPS (Escherichia coli 0111:B4 purified by gel filtration chromatography, >99% pure, Sigma-Aldrich) at a dose of 2 mg/kg for 6 hours. At the end of each experiment, all animals were euthanized by CO2 hypoxia and cervical dislocation.
NFkB-luciferase reporter mice assay. NFkB-luciferase reporter mice, in which the […], were subjected to endotoxemia with or without pretreatment with experimental compounds. The experimental compounds treated by this assay were compounds 1-6, with compounds 1-3 tested first and compounds 4-6 tested later. For both experiments, the mice were 6 weeks old on the date of the experiment. […] After whole body imaging, an additional injection of luciferin is given and animals were euthanized, organs were harvested, and the extent of NFkB activation within various tissues was further analyzed by an additional luminescence image of the individual organs. […]

[2] = test system: iNOS mRNA; experiment: CFW-NEC mouse model (formula feeding), iNOS mRNA levels; settings: 1 mg/kg, i.p., once daily for the first four days of the five day model; relative to RPLO
Excerpt: Inducible nitric oxide synthase (iNOS) is associated with necrotizing enterocolitis (NEC) in human infants. In a second set of experiments, the CFW-NEC mouse model system for NEC was used to evaluate the effect of various compounds from TABLES 1 and 2 above on iNOS mRNA levels. A model system for NEC was induced in newborn mouse pups by formula feeding, where control animals were breast-fed (Sodhi et al., 2010, Gastroenterol. 138(1):185-196; Richardson et al., 2010, Gastroenterol. 139(3):904-917). […] Note that RPLO stands for 505 ribosomal subunit protein L15, an acknowledged housekeeping gene, which means that it is a constitutive gene expressed at relatively constant levels by all cells and is thus used as a reference for comparing other genes which may vary under experimental conditions. In this same model system, levels of TLR4 mRNA levels were also evaluated. […] In contrast, the level of TLR4 was not increased in FF animals treated with C34 (1 mg/kg, i.p. once daily for the first four days of the five day model) and indeed mRNA levels were 30 percent below normal (see FIG. 14).

[3] = molecular target: T1, TLR4 (Mus musculus, UniProt Q9JHF9+Q9QUK6); experiment: CFW endotoxemia assay (observation of behavior and phenotype after LPS); settings: CFW mice, 20 nanomoles compound i.p. 30 minutes prior to LPS 2 mg/kg, 6 hours; for Observation (Compound “Hits”): listed as “Hits”; for Observation (Compound “Negatives”): listed as “Negatives”
T1 construct: Swiss Webster (CFW) and NFkB-luciferase reporter mice were obtained from The Jackson Laboratory; tissue The Jackson Laboratory; host or cells: whole live Swiss Webster (CFW) mice
T1 sequence (Q9QUK6 26-835): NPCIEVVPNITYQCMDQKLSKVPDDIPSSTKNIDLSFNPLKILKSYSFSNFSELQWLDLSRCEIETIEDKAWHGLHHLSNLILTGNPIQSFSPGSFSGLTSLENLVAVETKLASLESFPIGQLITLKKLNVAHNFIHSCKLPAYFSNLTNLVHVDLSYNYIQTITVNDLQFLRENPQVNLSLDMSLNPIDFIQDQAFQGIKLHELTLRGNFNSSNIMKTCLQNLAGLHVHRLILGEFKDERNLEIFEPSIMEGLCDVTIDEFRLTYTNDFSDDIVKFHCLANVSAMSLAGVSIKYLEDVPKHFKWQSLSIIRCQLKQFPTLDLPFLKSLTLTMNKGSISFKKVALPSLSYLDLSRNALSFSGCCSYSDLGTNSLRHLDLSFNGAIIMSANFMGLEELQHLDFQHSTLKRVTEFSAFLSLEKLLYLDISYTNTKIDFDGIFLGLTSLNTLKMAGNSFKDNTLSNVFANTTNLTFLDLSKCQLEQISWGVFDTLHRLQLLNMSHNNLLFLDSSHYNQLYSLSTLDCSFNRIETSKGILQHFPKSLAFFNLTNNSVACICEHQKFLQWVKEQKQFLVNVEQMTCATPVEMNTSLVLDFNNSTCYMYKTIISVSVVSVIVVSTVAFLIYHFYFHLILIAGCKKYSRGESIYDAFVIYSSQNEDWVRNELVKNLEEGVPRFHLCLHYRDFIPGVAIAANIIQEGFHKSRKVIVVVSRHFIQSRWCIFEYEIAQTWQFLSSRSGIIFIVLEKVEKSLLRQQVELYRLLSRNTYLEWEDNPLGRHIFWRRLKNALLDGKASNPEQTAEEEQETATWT
T1 sequence (Q9JHF9 19-160): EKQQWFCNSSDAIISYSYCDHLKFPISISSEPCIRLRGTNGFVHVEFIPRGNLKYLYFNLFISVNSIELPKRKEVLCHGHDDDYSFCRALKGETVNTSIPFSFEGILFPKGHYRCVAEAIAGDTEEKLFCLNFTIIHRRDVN
Method: as §1, §2
CFW endotoxemia assay. In order to effectively screen the entire compound list, the remaining compounds (7-60) were screened in a model of endotoxemia using CFW mice. Three separate experiments were performed: First, Compound 7 along with a repeat of compound 4 (n=3 mice per compound, mice age 5 weeks) were tested. Controls were saline injection alone (n=1), LPS 2 mg/kg 6 hrs (n=2). Second, compounds 3, 4, 6, 8-32 were tested (n=1 mouse each, 3 week old mice). Controls were saline injection alone (n=1), LPS 2 mg/kg 6 hrs (n=2), LPS 10 mg/kg 6 hrs (n=2), Bay 11 pretreatment 20 mg/kg for 30 minutes prior to LPS 2 mg/kg 6 hrs. Third, compounds 8, 16, 33-60 were tested (n=1 mouse each, 3 week old mice). Controls were saline injection alone (n=1), LPS 2 mg/kg 6 hrs (n=2), Bay 11 pretreatment 20 mg/kg for 30 minutes prior to LPS 2 mg/kg 6 hrs. Following 6 hours of endotoxemia, mice from the second and third experiments were observed within their cages and videotaped to document behavior and phenotypic differences to assess for an inhibitory effect of compound pretreatment on the effects of LPS. Mice were identified by a number previously placed using permanent marker on their tails. The degree of piloerection, tachypnea, location in the cage (center of cage versus corners), degree of activity, and behavior relative to other animals was observed and documented via video for each mouse.
Less activity, tachypnea, and piloerection are considered symptomatic of endotoxemia, so a decrease in these is consistent with TLR inhibition by the administered compound. Note that compounds listed as negatives may still be T4Ics at other concentrations or conditions.

Row | Compound | Observation (Compound “Hits”) [3] | further results
1 | CCCCCCCCCCCCCCCCCCCCCCCCCC(=O)NC(COC1OC(CO)C(O)C(O)C1O)C(O)C(O)CCCCCCCCCCCCCC [Compound 2, N-{(1S,2S,3R)-1-[(beta-L-glycero-hexopyranosyloxy)methyl]-2,3-dihydroxyheptadecyl}hexacosanamide] |  | inhibition of LPS-induced NFkB activation [1]: exception
2 | CC(=O)NC1C(OP(=O)(O)O)OC(CO)C(O)C1O (stereo not shown) [Compound 4, 3-acetamido-4,5-dihydroxy-6-(hydroxymethyl)tetrahydro-2H-pyran-2-yl dihydrogen phosphate, sodium salt] |  | inhibition of LPS-induced NFkB activation ([1]; phosphate, sodium salt): greatest inhibitory activity
3 | CC(=O)N[C@H]1C(O)O[C@H](CO)[C@H](O)[C@@H]1O.O (stereo partly drawn) [Compound 16, 2-(acetylamino)-2-deoxy-D-galactopyranose hydrate] |  | NFκB signalling (luciferase imaging) ([1]; LPS 2 mg/kg plus compound 1 mg/kg i.p.): reduced NFκB signalling
4 | CC(=O)NC1C(O)OC(CO)[C@@H](O[C@@H]2OC(CO)[C@H](O)C(O)C2O)C1O (stereo partly shown) [Compound 27, 2-(acetylamino)-2-deoxy-4-O-hexopyranosylhexopyranose] |  | increase of iNOS mRNA level in formula-fed (FF) pups [2]: much less
5 | C=CCO[C@@H]1O[C@H](COC(C)=O)[C@H](OC(C)=O)[C@H](OC(C)=O)[C@H]1NC(C)=O [Compound 47, allyl 3,4,6-tri-O-acetyl-2-(acetylamino)-2-deoxy-beta-D-lyxo-hexopyranoside] | More active, crawled over other mice, less piloerection | 
6 | C=CCO[C@@H]1O[C@H](CO)[C@@H](O)[C@H](O)[C@H]1NC(C)=O [Compound 50, allyl 2-(acetylamino)-2-deoxy-beta-D-glycero-hexopyranoside] | More active | 
7 | CC(=O)NC1C(O)OC(CO)C(O)C1O [Compound 52, 2-(acetylamino)-2-deoxy-beta-D-glycero-hexopyranose] | More active, less piloerection | 
8 | CCO[C@@H]1O[C@H](CO)[C@@H](O)[C@H](O)[C@H]1NC(C)=O [Compound 54, ethyl 2-(acetylamino)-2-deoxy-beta-D-glycero-hexopyranoside] | Less piloerection, less tachypnea | 
9 | CCO[C@@H]1O[C@H](COC(C)=O)[C@@H](OC(C)=O)[C@H](OC(C)=O)[C@H]1NC(C)=O [Compound 55, ethyl 3,4,6-tri-O-acetyl-2-(acetylamino)-2-deoxy-beta-D-glycero-hexopyranoside] | Less piloerection, less tachypnea, more active | 
10 | CCCCCCCCCCCCCCCCOC1OC(COC(C)=O)C(OC(C)=O)C(OC(C)=O)C1NC(C)=O (stereo not shown) [Compound 61, [5-acetamido-3-acetyloxy-2-(acetyloxymethyl)-6-hexadecoxy-oxan-4-yl] acetate] | Less piloerection, less tachypnea | 
11 | COC1OC(COC(C)=O)C(OC(C)=O)C(OC(C)=O)C1NC(C)=O (stereo not shown) [Compound 62, (5-acetamido-3,4-diacetyloxy-6-methoxy-oxan-2-yl)methyl acetate] |  | Observation (Compound “Negatives”) [3]: Nearly static, little movement, rigors
12 | CCOC1OC(CO)C(O)C(O)C1NC(C)=O (stereo not shown) [Compound 63, N-[2-ethoxy-4,5-dihydroxy-6-(hydroxymethyl)oxan-3-yl]acetamide] | More mobile, less piloerection | 
13 | (2R,3S,4R,5R,6R)-5-acetamido-2-(acetoxymethyl)-6-(((3aR,5R,5aS,8aS,8bR)-2,2,7,7-tetramethyltetrahydro-3aH-bis[1,3]dioxolo[4,5-b:4′,5′-d]pyran-5-yl)methoxy)tetrahydro-2H-pyran-3,4-diyl-diacetate [Compound 38] |  | Observation (Compound “Negatives”) [3]: Less active

— patent publication US10933077B2, “TLR4 inhibitors for the treatment of human infectious and inflammatory disorders” (UNIVERSITY OF PITTSBURGH—OF THE COMMONWEALTH SYSTEM OF …, priority 2010, dated 2021)
